# Laboratory results taken from PMC10458698, “Characterization of the interferences of systemic azole antifungal drugs with adrenal steroid biosynthesis using H295R cells and enzyme activity assays” (Current Research in Toxicology, 2023).
# Legend:
# CYP17A1 17,20-lyase = target: T1, CYP17A1 17,20-lyase (Homo sapiens, UniProt P05093); test: CYP17A1 17,20-lyase activity assay, microsomes of transfected COS-1 cells; format: biochemical; conditions: for IC50: 17α-hydroxypregnenolone 500 nM, 1 h; for lower inhibitory potency against 17,20-lyase than posaconazole: relative to posaconazole
# T1 construct: expressed in transfected cells; host or cells: COS-1 cells, transient transfection, microsomal fraction
# T1 sequence (P05093 1-508): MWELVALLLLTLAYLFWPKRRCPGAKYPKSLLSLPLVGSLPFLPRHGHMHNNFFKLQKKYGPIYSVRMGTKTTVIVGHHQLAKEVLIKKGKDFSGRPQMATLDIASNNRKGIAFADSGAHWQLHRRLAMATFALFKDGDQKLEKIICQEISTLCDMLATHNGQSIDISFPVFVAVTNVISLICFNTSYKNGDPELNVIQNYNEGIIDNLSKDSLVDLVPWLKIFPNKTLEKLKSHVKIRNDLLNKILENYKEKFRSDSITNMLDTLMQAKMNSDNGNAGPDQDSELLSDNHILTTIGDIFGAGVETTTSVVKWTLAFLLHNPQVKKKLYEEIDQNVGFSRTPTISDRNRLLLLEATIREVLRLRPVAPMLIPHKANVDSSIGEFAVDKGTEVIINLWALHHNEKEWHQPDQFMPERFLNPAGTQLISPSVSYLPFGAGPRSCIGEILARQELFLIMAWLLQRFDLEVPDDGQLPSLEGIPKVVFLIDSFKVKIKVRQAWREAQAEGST
# Description: Microsomes were prepared from COS-1 cells transiently transfected with plasmids for either CYP17A1 and POR for CYP17A1-hydroxylase assay (human CYP17A1 was available in our own plasmid collection after cloning into pcDNA3, POR was ordered from Genescript, Piscataway, USA, clone ID OHu25584C), CYP17A1, POR and cytochrome b5 for CYP17A1 17,20-lyase assay (cytochrome b5 was from Genescript, clone ID OHu09495D), POR and CYP21A2 (Genescript, CYP21A2 clone ID OHu18602D), or 3β-HSD2 (Genescript, clone ID OHu14034D). Transfection was performed using PEI and equal amounts of required plasmids with a total DNA amount of 8 µg per transfection of 3,000,000 cells. After overnight incubation, cells were washed with prewarmed PBS before adding ice-cold PBS. Cells were collected and centrifuged at 600 × g for 4 min at 4 °C, washed with ice cold PBS and centrifuged again. The pellet was resuspended in a resuspension buffer (20 mM Tris, pH 7.5, 50 mM KCl, 2 mM MgCl2, 0.25 M sucrose). Cells were disrupted with 30 S by a glass potter (2 cm^3) as described above. The homogenate was centrifuged for 20 min at 12,000 × g and 4 °C. Microsomes were pelleted by ultracentrifugation at 100,000 × g for 1 h at 4 °C. The pellet was resuspended in reaction buffer and the protein concentration determined using the Pierce Protein BCA kit as described above.
# Microsomes, 250 µg/mL, expressing CYP17A1, POR and cytochrome b5 were incubated in reaction buffer for 10 min with 1 mM NADPH and the azole antifungals. The reaction was started by adding 500 nM 17α-hydroxypregnenolone in a total reaction volume of 50 µL. After 1 h of incubation at 37 °C, the reaction was stopped adding 50 µL methanol. Samples were evaporated to dryness, reconstituted in 6 µL methanol, diluted 1:25 in water and the DHEA concentration was quantified using an ELISA kit (DEH3344, Demeditec, Kiel, Germany). Absorbance was measured using a BioTek Citation5 imaging reader.
# CYP11A1 = target: T2, CYP11A1 (Homo sapiens, UniProt P05108); test: CYP11A1 assay based on mitochondrial fraction of V79-4 cells; format: biochemical; conditions: 10 µM, 20S-hydroxycholesterol 2 µM, 4 h, qualitative, assay of low sensitivity
# T2 construct: host or cells: V79-4 cells (Chinese hamster), transient transfection, mitochondrial fraction
# T2 sequence (P05108 40-521): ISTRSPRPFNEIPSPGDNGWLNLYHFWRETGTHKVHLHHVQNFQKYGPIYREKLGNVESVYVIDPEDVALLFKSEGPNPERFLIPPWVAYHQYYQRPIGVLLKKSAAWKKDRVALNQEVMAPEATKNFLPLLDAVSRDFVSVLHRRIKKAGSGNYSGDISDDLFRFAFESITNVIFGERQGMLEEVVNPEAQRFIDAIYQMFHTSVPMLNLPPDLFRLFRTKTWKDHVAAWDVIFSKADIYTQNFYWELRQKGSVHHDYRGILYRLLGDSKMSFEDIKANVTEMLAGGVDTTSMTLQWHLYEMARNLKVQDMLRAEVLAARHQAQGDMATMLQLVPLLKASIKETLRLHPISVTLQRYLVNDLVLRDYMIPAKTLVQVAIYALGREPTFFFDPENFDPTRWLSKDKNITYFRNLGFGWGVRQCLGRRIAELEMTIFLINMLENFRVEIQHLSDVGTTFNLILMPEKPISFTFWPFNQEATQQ
# Description: Mitochondria were prepared as described previously with modifications ([Frezza et al., 2007]). Briefly, V79-4 cells (3,000,000) were seeded 4 h prior to transfection with 4 µg of expression plasmid for CYP11A1 and adrenodoxin (GeneScript Piscataway, USA, clone IDs OHu18602D and OHu55929D) using polyethylemine (PEI) in a PEI/DNA ratio of 3:1 (w/w). At 4 h post-transfection, medium was changed and cells were incubated overnight. Cells were collected in ice cold phosphate buffered saline (PBS) and centrifuged at 600 × g for 10 min at 4 °C. The pellet was resuspended in ice cold isolation buffer (10 mM Tris/MOPS, pH 7.4, 1 mM EGTA/Tris, pH 7.4, 200 mM sucrose in water) and transferred to a glass potter, followed by 35 S using a 2 cm^3 glass Teflon pestle. The homogenate was centrifuged for 10 min at 600 × g and 4 °C. The supernatant was collected and centrifuged for 10 min at 7000 × g at 4 °C. The pellet was washed and resuspended in 200 μL ice cold isolation buffer. After centrifugation, the pellet containing the mitochondrial fraction was resuspended in 30 μL reaction buffer (25 mM HEPES pH 7.4, 0.1 mM DTT, 0.1 mM EDTA, 4 mM MgCl2) and the protein content was determined by the BCA assay according to the manufacturer (Pierce BCA protein assay kit, Thermo Scientific, Rockford, USA). Bovine serum albumin provided with the kit was used as reference protein and absorbance was measured using a BioTek Cytation5 Imaging Reader (Agilent BioTek).
# For the CYP11A1 activity assay, 500 µg/mL of freshly prepared mitochondrial fraction were pre-incubated on ice with reaction buffer, 1 mM NADPH and either vehicle (0.1% DMSO), 10 µM of the positive control ketoconazole ([Mast et al., 2013]) or the triazole antifungals for 10 min. The reaction was started by adding the substrate 20S-hydroxycholesterol at a final concentration of 2 µM in a reaction volume of 50 µL. After 4 h of incubation at 37 °C, the reaction was stopped by adding 50 µL methanol and shock-freezing in liquid nitrogen. Samples were stored at −80 °C until sample preparation for pregnenolone detection using an ELISA kit (Alpco, Salem, USA). Sample preparation included evaporation of samples to dryness, reconstitution in 6 µL methanol and 1:25 (v:v) dilution in water. The ELISA was performed according to the manufacturer and absorbance was measured using a BioTek Citation5 imaging reader.
"IC50 (CYP17A1 17,20-lyase; cell-free)",inhibition of CYP11A1 activity (CYP11A1),"inhibition of CYP17A1 17,20-lyase (CYP17A1 17,20-lyase; cell-free, in words)","preference for 17,20-lyase over the 17α-hydroxylase activity (CYP17A1 17,20-lyase; ratio of IC50 values)",Compound,"lower inhibitory potency against 17,20-lyase than posaconazole (CYP17A1 17,20-lyase)"
5.71 µM,comparable to ketoconazole,–,–,C[C@@H](c1nc(-c2ccc(C#N)cc2)cs1)[C@](O)(Cn1cncn1)c1cc(F)ccc1F [isavuconazole],20 times
0.28 µM,very weak inhibitory activity,potently inhibited,four-fold preference,"CC[C@@H]([C@H](C)O)n1ncn(-c2ccc(N3CCN(c4ccc(OC[C@@H]5CO[C@@](Cn6cncn6)(c6ccc(F)cc6F)C5)cc4)CC3)cc2)c1=O [posaconazole, Posaconazole]",–

Compound,"IC50 (CYP17A1 17,20-lyase; cell-free)",inhibition of CYP11A1 activity (CYP11A1),"inhibition of CYP17A1 17,20-lyase (CYP17A1 17,20-lyase; cell-free, in words)","preference for 17,20-lyase over the 17α-hydroxylase activity (CYP17A1 17,20-lyase; ratio of IC50 values)","lower inhibitory potency against 17,20-lyase than posaconazole (CYP17A1 17,20-lyase)"
CCC(C)n1ncn(-c2ccc(N3CCN(c4ccc(OCC5COC(Cn6cncn6)(c6ccc(Cl)cc6Cl)O5)cc4)CC3)cc2)c1=O (stereo not shown) [itraconazole],5.76 µM,very weak inhibitory activity,–,–,20 times
